Key:
amyloid plaques = test: Use against Alzheimer's disease (radiotracer / therapeutic agent)
Description: In fact, it is capable of binding to the amyloid plaques, the accumulation whereof within the nerve cells characterises the presence of the pathology, and catalyses its formation process. By crossing the blood-brain barrier, the deposit of the subject drug is suitably identified inside said amyloid plaques, providing a diagnostic feedback beyond all doubts.
In fact, the drug, by binding to said amyloid plaques, initially stabilises the growth thereof, to then slower it by braking such “drug-plaque” bonds.

DNA of the cancer cell = test: Laboratory experimental tests of Auger radioactive effect on cancer cells; details: dosage 1.5 Bq for each cell
Protocol: Said dosage is equal to a 1.5 Bq (Becquerel) for each cell, a quantity such that the therapeutic effectiveness of the drug is carried out through the expression of the toxicity thereof only inside the nucleus, achieving a true target therapy.

[1] = test system: solid tumours, neuroendocrine tumours, melanomas, leukaemias and lymphomas; test: Therapeutic effectiveness in cancer pathologies; details: solid tumours (pancreas, prostate, brain, breast, ovary, head-neck, oesophagus, stomach, intestines, colon, liver, lung)

Structure (SMILES): [64Cu+2].[Cl-].[Cl-] [64CuCl2, copper-64 chloride]
- therapeutic agent against neuronal cells affected by the Alzheimer's disease (amyloid plaques; average dose 3,700 MBq): carries out the function of therapeutic agent
- radiotracer for the diagnosis of the Alzheimer's disease (amyloid plaques; average dose of 370 MBq): capable of acting as a radiotracer
- Auger radioactive effect on DNA of the cancer cell (DNA of the cancer cell): capable of destroying the DNA of the cancer cell
- volume of the tumoural lesions in solid tumours (DNA of the cancer cell): reducing the volume of the tumoural lesions in solid tumours
- effectiveness as a therapeutic agent for cancer pathologies [1]: effective

Source: patent publication US20160296644A1, “ANTICANCER DRUG, COMPRISING A COPPER RADIOISOTOPE” (priority 2013, published 2016)
